# Patent US12691065B2, “Liposome formulations for treatment of cancers and drug resistance of cancers” (NanoTech Pharma Inc., priority 2020, dated 2026)
# Tests used:
# [1] = In-vivo pharmacokinetic study, intravenous; conditions: free drug solution, CD-1 mice
# Text: After intravenous administration, blood was collected at multiple time points for a week by cardiac puncture (3 mice per time point) and placed into EDTA coated micro containers. The samples were centrifuged to separate plasma, and plasma was transferred to another tube.
# [2] = test system: MDA-MB-231(R) cells; experiment: MTT cytotoxicity of DOX on MDA-MB-231 versus MDA-MB-231(R); assay type: cell-based, human; conditions: 48-hour DOX treatment, each dose level
# Text: Doxorubicin resistant cell lines of MDA-MB-231 and MCF-7 were developed in house. The resistant variants were generated by repeatedly culturing MDA-MB-231 and MCF-7 cells in the presence of 0.2 μmol/L DOX. These cells that proliferated well in the presence of doxorubicin after several passages qualified as DOX-resistant MDA-MB-231 and MCF-7 cells, which were named as MDA-MB-231(R) and MCF-7(R) cell lines, respectively. Both MDA-MB-231(R) and MCF-7(R) cell lines were characterized against non-DOX treated MDA-MB-231 and MCF-7 cell lines.
# The cell seeded plate was incubated for 24 hours at 37° C. and 5% CO2 in a standard cell culture incubator before drug treatment. […] After another 24 hours of incubation, cell viability was assessed by the MTT assay following the manufacture's protocols. Relative percent survival was determined by subtracting absorbance values obtained by media-only wells from drug treated wells and then normalizing to the no-drug control wells (cell only control). The fraction of cells affected (Fa), or cell growth inhibition (%) at each drug concentration was subsequently calculated for each well. The effect of drug combinations was then calculated and processed by a software CompuSyn for drug synergy analysis. The program employs the median-effect analysis algorithm, which produces the Combination Index (CI) value as a quantitative indicator of the degree of synergy. […]
compound,measurement,setting,value
"COc1cccc2c1C(=O)c1c(O)c3c(c(O)c1C2=O)C[C@@](O)(C(=O)CO)C[C@@H]3O[C@H]1C[C@H](N)[C@H](O)[C@H](C)O1.Cl [DOX, Doxorubicin hydrochloride]",half-life (T1/2),[1],30 min
same,cell viability of MDA-MB-231(R) compared to MDA-MB-231,[2],markedly greater
